Experiment [1] is described as follows: Cytotoxicity against human A375S2 cells assessed as induction of cell death at 30 ug/mL by MTT assay. It is filed as functional, A375-S2. A general note: Formazan colour is commonly taken as a measure of viable cells.
Experiment [2] is described as follows: Cytotoxicity against human A375S2 cells assessed as induction of cell death at 20 ug/mL by MTT assay. It is filed as functional, A375-S2.

Regarding `CCCCCCCCCCCCCCCCCCCCCCC[C@@H](O)C(=O)N[C@@H](CO)[C@H](O)[C@H](O)C/C=C/CCCCC1CC1CCCC` (stereo partly drawn) [GRACILAMIDE A], the Activity in experiment [1] came to 11.7%.

On to `CCCCCCCCCCCCCCCCCCCCCCC[C@@H](O)C(=O)N[C@@H](CO[C@@H]1O[C@H](CO)[C@@H](O)[C@H](O)[C@H]1O)[C@H](O)[C@H](O)C/C=C/CCCCC1CC1CCCC` (stereo partly drawn) [GRACILARIOSIDE], for which the Activity in experiment [2] worked out at 18.2%.

Turning to `CCCCCCCCCCCCCCCCCCCCCC[C@@H](O)[C@@H](O)[C@H](CO)NC(=O)[C@H](O)CCCCCCCCC1CC1CCCC` (stereo partly drawn) [GRACILAMIDE B], the Activity in experiment [1] was determined as 11.7%.

Values taken from ChEMBL document CHEMBL1158087, “Gracilarioside and gracilamides from the red alga Gracilaria asiatica” (2006).
